Measurements as given in patent US9187518B2, “Antiangiogenic brassinosteroid compounds” (CONSEJO NACIONAL DE INVESTIGACIONES CIENTIFICAS Y TECNICAS …, priority 2011, dated 2015).

Columns and labels:
NF-κB p65 subunit = assay: NF-κB p65 nuclear translocation in LPS-stimulated J774A.1 cells (IFI); format: cell-based, murine; conditions: J774A.1 induced with LPS 8 h, 40 μM (LPS only 79.4±1.2)
Method: J774A.1 cells were grown on coverslips in 24-well plates and stimulated with 100 ng/ml LPS (Sigma) in RPMI without SFB, for 8 h at 37° C.
After incubation, cells were fixed in methanol at −20° C. for 10 min, and processed for indirect immunofluorescence (IFI) with antibodies directed against the glycoprotein D (gD) of HSV-1 and/or the p65 subunit of NF-κB. After three washes with PBS, the coverslips were inverted on a drop of a 1/100 dilution of the first antibody, mouse monoclonal anti-gD and/or rabbit polyclonal anti p65 (Santa Cruz Biotechnology) and incubated for 30 min at 37° C., and then subjected to three additional washes with PBS. […]
The images obtained with a 40× magnification were imported into NIH Image J 1.34s program (designed by Wayne Rasband, NIMH, Bethesda). […] We analyzed the total and nuclear fluorescence of the individual cells and a mean fluorescence density was obtained for each. To compare the distribution of fluorescence within the cell, the results were analyzed in a spreadsheet (Excel®). The total fluorescence intensity or nuclear density was calculated as the total or nuclear average per total or nuclear area, respectively. Then, we calculated the percentage of nuclear intensity or the percentage of nuclear intensity with respect to the total intensity for each cell. […]

IL-6 [1] = assay: IL-6 secretion in LPS-stimulated J774A.1 macrophages (ELISA); format: cell-based, murine; conditions: J774A.1 stimulated with 100 ng/ml LPS 8 h, 40 μM
Method: J774A.1 cells grown in 24-well plates were incubated at 37° C. with 100 ng/ml of LPS, in duplicate. After 8 h, supernatants were harvested and murine IL-6 was quantified by commercial ELISA sets (BD OptEIA™, Becton Dickinson, USA) according to manufacturer instructions.

IL-6 [2] = assay: IL-6 secretion in epithelial cells (ELISA); format: cell-based, human
HUVEC cells = assay: Capillary tube formation on a Matrigel; format: cell-based, human; conditions: for reduction of tube formation vs untreated control: not statistically significant
Method: The formation of capillary tube like structures by HUVEC cells was analyzed on 24-well cell culture plates coated with an extracellular membrane matrix (Matrigel; BD Biosciences).
Matrigel was thawed at 4° C. Using precooled plates and tips, 100 μl/well of Matrigel was distributed and allowed to gelify at 37° C. for at least 30 min. Cells were seeded on the polymerized Matrigel (5 to 8×10^4 cells/well). The plate was incubated at 37° C., and tube formation was observed under a optic inverted microscope. Digital pictures were taken at different times with a camera. Tubular structures were quantified by manual counting of low power fields (25×) and inhibition percentage was expressed using untreated wells as 100%.
The formation of capillary tube-like structures by HUVEC cells was analyzed on 24-well cell culture plates coated with an extracellular membrane matrix (Matrigel; BD Biosciences). Matrigel was thawed at 4° C. Using precooled plates and tips, 100 μl/well of Matrigel was distributed and allowed to gelify at 37° C. for at least 30 min. Cells were seeded on the polymerized Matrigel (5 to 8×10^4 cells/well) in absence and presence of concentrations of 20 μM and 40 μM of each compound. The plate was incubated at 37° C., and tube formation was observed under an optic inverted microscope. Compound 1 was used as positive control.

VEGF promoter = assay: VEGF expression (pVEGF-LUC reporter) in J774A.1 cells; format: cell-based, murine
Text: The expression vectors pVEGF-LUC (encoding firefly luciferase) and pβ-gal were kindly donated by members of the research group of Dr. Arzt (FCEyN, UBA, Argentina).
J774A.1 cells grown to confluence in 6-well micro-plates were transfected with […] of pVEGF-LUC and pβ-gal plasmids diluted in the Opti MEM medium, without serum and antibiotics, and in the presence of lipofectamine (DNA lipofectamine TM 2000) as a reagent for transfection, according to the manufacturer's instructions. After 4 to 6 h of incubation at 37° C. in 5% CO2 atmosphere, the medium was discarded and replaced by fresh Opti MEM with 10% FBS, without antibiotics, and incubated at 37° C. in atmosphere 5% CO2 for 24 h.
The medium was discarded and cells were stimulated with 100 ng/ml LPS and 1 ng/ml of IL-6 in Opti MEM medium with 10% FBS. After 8 h and 16 h stimulation, the medium was discarded and the cells were lifted by scrapping in 0.1 ml per well of 1× lysis buffer. The samples were stored at −70° C. until processing.
In order to measure luciferase activity, 20 μl of each sample were mixed with 80 μl of substrate for firefly luciferase and measured in a luminometer. In the same samples, β-gal activity was measured in 96-well microplates. To do this, 20 μl of each sample were mixed with 80 μl of substrate for β-galactosidase and incubated at 37° C. until color developed. The absorbances of these mixtures were read in an ELISA reader at 450 nm.
We determined the expression of luciferase as a reporter of VEGF promoter activity values obtained by normalizing the against β-gal activity for each sample.
Thus, J774A.1 cells grown in 6-well microplates were transfected with plasmids pVEGF-LUC and pβ-gal. At 24 h post-transfection, cells were stimulated with 100 ng/ml of LPS and […], in the absence and presence of […] of Compound 1. Then, we measured the expression of VEGF and β-gal in the harvested samples and determined the expression of luciferase as a reporter of VEGF promoter activity, by normalizing the values obtained with those of β-gal activity.

TNF-α = TNF-α secretion in LPS-activated macrophages; format: cell-based; conditions: Macrophage, read-out: inhibitory concentration 50% (IC50), TNF-α secretion

With `CC[C@@H](C(C)C)[C@H](O)[C@@H](O)[C@@H](C)[C@H]1CC[C@H]2[C@@H]3CCC4=CC(=O)CC[C@]4(C)[C@H]3CC[C@]12C` [Compound 1, (22S,23S)-22,23-dihydroxystigmast-4-en-3-one] the “percentage of cells positive for NF-κB translocation to the nucleus” value (NF-κB p65 subunit) was 87.9±0.2%, the IL-6 level (IL-6 [1]) was 838 ± 4.2 pg/mL and the IL-6 release (IL-6 [2]; HSV-1 infected HCLE cells, 40 μM, 24 h, vs infected control) was “did not elicit any change”. The IL-6 release (IL-6 [2]; HSV-1 infected IOBA-NHC cells, 40 μM, 24 h, vs infected control) was “did not elicit any change”, the IL-6 release (IL-6 [2]; uninfected treated cells, compound alone) was “did not induce IL-6 release by itself” and the “reduction of tube formation vs untreated control” value (HUVEC cells; 2.5 μM, 24 h) was 17.3%. For the same molecule, the “reduction of tube formation vs untreated control” value (HUVEC cells; 5 μM, 24 h) was 25.9%, the “reduction of the tube-like network” value (HUVEC cells; 10 μM, 24 h) was 59.8% and the “formation of capillary tube like structures” value (HUVEC cells; 20 μM and 40 μM, comparative assay) was “showed inhibitory activity”. The “reduction of the tube-like network” value (HUVEC cells; 20 μM, 24 h) was 90.7%, the “inhibition of tube formation” value (HUVEC cells; 50 μM, 24 h) was “complete inhibition” and the “inhibition of tube formation” value (HUVEC cells; 100 μM, 24 h) was “complete inhibition”. For the same molecule, the inhibition at 40 µM (HUVEC cells; Homo sapiens, HUVEC, 40 μM, 24 h) was 93.9%, the “VEGF expression (luciferase normalized to β-gal, VEGF/β-gal)” value (VEGF promoter; 100 ng/ml LPS 8 h, Compound 1 (stimulated untreated 93201.5±26770.4)) was 22098.5±4052.4 and the “VEGF expression (luciferase normalized to β-gal, VEGF/β-gal)” value (VEGF promoter; IL-6 16 h, Compound 1 (stimulated untreated 30929.5±5464)) was 17900±2689.7. For the same molecule, the “VEGF expression (luciferase normalized to β-gal)” value (VEGF promoter; no stimulus, compound alone, vs baseline) was “did not induce the expression of VEGF” and the IC50 (TNF-α) was 7 µM.
